pIC50: −log10 of the molar value.
Tests used:
MKK4 = molecular target: T1, MKK4 (Homo sapiens, UniProt P45985); assay: KINOMEscan competition binding assay, MKK4 potency; details: concentration of 100 nM
T1 construct: S84/D399; host or cells: HEK-293
T1 sequence (P45985 84-399): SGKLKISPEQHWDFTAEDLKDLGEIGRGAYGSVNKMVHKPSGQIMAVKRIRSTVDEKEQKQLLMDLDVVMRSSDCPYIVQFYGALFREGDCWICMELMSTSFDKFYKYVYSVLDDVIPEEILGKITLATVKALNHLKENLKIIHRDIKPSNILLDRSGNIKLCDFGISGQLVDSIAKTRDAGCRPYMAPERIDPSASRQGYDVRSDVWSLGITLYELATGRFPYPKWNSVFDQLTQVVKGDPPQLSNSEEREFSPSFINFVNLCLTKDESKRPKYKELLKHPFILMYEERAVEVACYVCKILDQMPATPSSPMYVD
Summary of the method: (§1)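 DNA-tagged kinases expressed in HEK-293 cells compete between test compound and immobilized ligand on blocked beads. Bound kinase is eluted and quantified by qPCR of the DNA tag. Compounds were tested at the indicated final concentrations, prepared from 10 mM stocks.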

JNK1 = molecular target: T2, JNK1 (Homo sapiens, UniProt P45983); assay: KINOMEscan competition binding assay, selectivity against off-target JNK1; details: concentration of 100 nM
T2 construct: M1/Q384; host or cells: HEK-293
T2 sequence (P45983 1-384 isoform P45983-2): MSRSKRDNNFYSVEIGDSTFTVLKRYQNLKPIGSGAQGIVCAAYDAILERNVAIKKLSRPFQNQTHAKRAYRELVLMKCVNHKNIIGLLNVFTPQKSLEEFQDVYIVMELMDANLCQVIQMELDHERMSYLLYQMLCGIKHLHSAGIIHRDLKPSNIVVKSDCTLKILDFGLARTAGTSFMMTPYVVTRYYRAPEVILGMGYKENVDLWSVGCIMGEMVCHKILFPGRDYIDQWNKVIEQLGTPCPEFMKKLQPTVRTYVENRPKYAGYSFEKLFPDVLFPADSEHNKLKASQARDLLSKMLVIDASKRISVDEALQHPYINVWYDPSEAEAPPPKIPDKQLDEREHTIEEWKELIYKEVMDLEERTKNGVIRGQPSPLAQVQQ
Summary of the method: as §1

MKK7 = molecular target: T3, MKK7 (Homo sapiens, UniProt O14733); assay: KINOMEscan competition binding assay, selectivity against off-target MKK7; details: concentration of 100 nM
T3 construct: M1/R419; host or cells: HEK-293
T3 sequence (O14733 1-419): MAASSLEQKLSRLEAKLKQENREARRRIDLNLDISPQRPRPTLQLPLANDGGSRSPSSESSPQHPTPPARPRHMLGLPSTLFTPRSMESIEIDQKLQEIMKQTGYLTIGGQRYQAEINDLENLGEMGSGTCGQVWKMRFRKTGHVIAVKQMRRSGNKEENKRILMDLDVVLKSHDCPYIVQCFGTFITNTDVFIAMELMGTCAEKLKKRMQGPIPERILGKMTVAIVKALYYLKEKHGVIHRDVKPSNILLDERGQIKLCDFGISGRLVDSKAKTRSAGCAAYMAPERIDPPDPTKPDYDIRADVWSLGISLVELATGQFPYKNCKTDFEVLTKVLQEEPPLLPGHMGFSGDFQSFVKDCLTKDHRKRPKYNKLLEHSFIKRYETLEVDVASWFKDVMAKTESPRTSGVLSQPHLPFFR
Summary of the method: as §1

BRaf = BRaf (Homo sapiens, UniProt P15056); assay: KINOMEscan competition binding assay, selectivity against off-target BRaf; details: concentration of 100 nM
BRaf, sequence (P15056 whole entry): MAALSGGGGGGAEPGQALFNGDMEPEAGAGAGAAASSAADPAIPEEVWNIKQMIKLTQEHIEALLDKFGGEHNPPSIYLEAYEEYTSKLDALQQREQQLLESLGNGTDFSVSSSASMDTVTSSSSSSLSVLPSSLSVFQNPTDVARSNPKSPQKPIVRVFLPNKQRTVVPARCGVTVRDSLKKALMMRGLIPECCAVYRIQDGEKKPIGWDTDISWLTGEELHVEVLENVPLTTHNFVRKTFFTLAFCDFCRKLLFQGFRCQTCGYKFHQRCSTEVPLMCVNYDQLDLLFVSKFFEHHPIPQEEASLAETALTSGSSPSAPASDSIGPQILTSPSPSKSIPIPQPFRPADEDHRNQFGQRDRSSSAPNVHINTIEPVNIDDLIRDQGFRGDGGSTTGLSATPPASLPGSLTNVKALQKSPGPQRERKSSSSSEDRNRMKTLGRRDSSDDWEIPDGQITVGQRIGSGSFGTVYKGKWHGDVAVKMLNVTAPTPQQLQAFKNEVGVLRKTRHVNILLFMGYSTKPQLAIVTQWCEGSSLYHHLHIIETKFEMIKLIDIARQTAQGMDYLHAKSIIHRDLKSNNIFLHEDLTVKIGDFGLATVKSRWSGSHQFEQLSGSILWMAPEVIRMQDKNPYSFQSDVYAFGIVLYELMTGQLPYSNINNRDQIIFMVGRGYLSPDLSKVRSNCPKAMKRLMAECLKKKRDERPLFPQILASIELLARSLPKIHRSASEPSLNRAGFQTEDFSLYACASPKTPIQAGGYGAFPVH
Summary of the method: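 Competition binding: test compound competes with an immobilized ligand for DNA-tagged BRaf, and kinase captured on the ligand is quantified by qPCR of the DNA tag. Compounds from 10 mM stocks were tested at the indicated final concentrations.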

MKK4-MEKK2 mix = molecular target: T4, MKK4-MEKK2 mix (Homo sapiens, UniProt P45985); assay: Radiometric protein kinase assay, MEKK2 dependent MKK4 activation (cascade); type: biochemical; details: substrate JNK1 KRKR, ATP 0.2 μM, read-out: Cascade, potency derived from IC50-values
T4 construct: MEKK2, recombinant, active: ProQinase product #0583-0000-1
T4 sequence (P45985 2-399): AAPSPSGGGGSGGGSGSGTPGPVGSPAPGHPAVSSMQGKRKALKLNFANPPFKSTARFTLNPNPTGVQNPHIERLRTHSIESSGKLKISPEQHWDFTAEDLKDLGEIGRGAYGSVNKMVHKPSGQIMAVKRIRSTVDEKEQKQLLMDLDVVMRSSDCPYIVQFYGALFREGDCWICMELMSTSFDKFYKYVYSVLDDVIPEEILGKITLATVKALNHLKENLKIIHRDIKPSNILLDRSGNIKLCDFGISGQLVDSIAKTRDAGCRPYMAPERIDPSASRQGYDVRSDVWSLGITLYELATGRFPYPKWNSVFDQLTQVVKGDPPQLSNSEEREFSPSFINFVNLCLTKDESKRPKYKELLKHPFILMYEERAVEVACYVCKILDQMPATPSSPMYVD
Experimental: The activation step is done in 50 mM HEPES pH 7.5, 50 mM NaCl, 3.8 mM MgCl2, 2.5 mM DTT, 10% (v/v) glycerol. Final DMSO concentration is 1%. The activation mixture is pipetted in the following order • 2.5 μl compound in 4% DMSO • 2.5 μl ATP/MgCl2 mix • 5 μl premixed kinase solution MKK4:MEKK2 10:1 (w/w)
Protein concentrations in the activation mix are 1 μM MKK4 and 50 nM MEKK2.
A radiometric protein kinase assay was used for measuring the kinase activity of the respective protein kinases. All kinase assays were performed in 96-well polypropylene plates. After the reactions were stopped, the assay mixtures were transferred to 96-well MSFC filter-plates (Millipore). The reaction mix was passed through the filter membrane by aspiration, the membrane was washed 3 times with 150 mM H3PO4, once with ethanol, dried and liquid scintillation cocktail was added. Radioactivity was determined by counting of the samples in a Microbeta multiwell scintillation counter (Wallac).

MKK4 active = molecular target: T5, MKK4 active (Homo sapiens, UniProt P45985); assay: Radiometric protein kinase assay, MKK4 active; type: biochemical; details: substrate JNK1 KRKR, ATP 0.2 μM, read-out: MKK4, potency derived from IC50-values
T5 construct: purchased ProQinase #0948-0000-1
T5 sequence (P45985 1-399): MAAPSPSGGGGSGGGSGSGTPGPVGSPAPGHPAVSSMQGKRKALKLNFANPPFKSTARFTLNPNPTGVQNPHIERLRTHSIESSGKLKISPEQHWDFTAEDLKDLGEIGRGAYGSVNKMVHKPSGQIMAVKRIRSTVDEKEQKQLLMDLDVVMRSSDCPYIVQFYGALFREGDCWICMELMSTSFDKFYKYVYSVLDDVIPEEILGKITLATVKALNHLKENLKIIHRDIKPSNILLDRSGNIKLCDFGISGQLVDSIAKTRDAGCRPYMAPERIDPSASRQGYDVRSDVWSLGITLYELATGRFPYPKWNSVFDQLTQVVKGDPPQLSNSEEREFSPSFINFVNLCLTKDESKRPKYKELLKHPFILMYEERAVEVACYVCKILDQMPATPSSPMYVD
Summary of the method: (§2)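 Kinase activity measured radiometrically: stopped reactions were captured on filter plates, washed with 150 mM H3PO4 and ethanol, and incorporated radioactivity counted by liquid scintillation.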

MEKK2 = molecular target: T6, MEKK2 (Homo sapiens, UniProt Q9Y2U5); assay: Radiometric protein kinase assay, MEKK2; type: biochemical; details: substrate Casein, ATP 0.2 μM; read-out: MEKK2, potency derived from IC50-values
T6 construct: purchased ProQinase #0583-0000-1
T6 sequence (Q9Y2U5 1-619): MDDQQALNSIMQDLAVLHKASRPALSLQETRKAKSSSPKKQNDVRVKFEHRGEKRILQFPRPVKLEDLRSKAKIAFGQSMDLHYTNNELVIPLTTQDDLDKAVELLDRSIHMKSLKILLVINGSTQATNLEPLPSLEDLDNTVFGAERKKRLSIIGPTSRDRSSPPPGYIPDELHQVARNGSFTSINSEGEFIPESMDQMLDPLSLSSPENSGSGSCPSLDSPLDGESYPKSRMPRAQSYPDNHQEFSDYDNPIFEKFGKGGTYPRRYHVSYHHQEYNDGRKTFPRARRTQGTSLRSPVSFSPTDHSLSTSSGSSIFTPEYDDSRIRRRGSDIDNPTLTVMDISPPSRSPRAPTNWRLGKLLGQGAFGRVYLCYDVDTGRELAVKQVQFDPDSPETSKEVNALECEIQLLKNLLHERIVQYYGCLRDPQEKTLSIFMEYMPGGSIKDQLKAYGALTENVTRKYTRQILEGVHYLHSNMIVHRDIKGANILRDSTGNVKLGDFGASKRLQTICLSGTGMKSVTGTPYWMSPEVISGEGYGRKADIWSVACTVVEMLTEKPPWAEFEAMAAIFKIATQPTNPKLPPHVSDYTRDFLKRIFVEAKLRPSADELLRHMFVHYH
Summary of the method: as §2

| SMILES | MKK4, residual percent of control binding (PoC) (MKK4) | Selectivity vs. JNK1, ratio PoC(JNK1)/PoC(MKK4) (JNK1) | Selectivity vs. MKK7, ratio PoC(MKK7)/PoC(MKK4) (MKK7) | Selectivity vs. BRaf, ratio PoC(BRaf)/PoC(MKK4) (BRaf) | pIC50 (MKK4-MEKK2 mix) | pIC50 (MKK4 active) | pIC50 (MEKK2) |
| --- | --- | --- | --- | --- | --- | --- | --- |
| CCCS(=O)(=O)Nc1ccc(F)c(C(=O)c2n[nH]c3ncc(-c4ccc([N+](=O)[O-])cc4)cc23)c1F [Example 23, N-(2,4-difluoro-3-(5-(4-nitrophenyl)-1H-pyrazolo-[3,4-b]pyridine-3-carbonyl)-phenyl)propane-1-sulfon-amide] | ++ (1 ≤ PoC < 10) | ++ (30 > PoC(JNK1)/PoC(MKK4) ≥ 10) | ++ (30 > PoC(MKK7)/PoC(MKK4) ≥ 10) | + (10 > PoC(BRaf)/PoC(MKK4) ≥ 3) | < 5.00 | < 5.00 | < 5.00 |
| CCCS(=O)(=O)Nc1ccc(F)c(C(=O)c2n[nH]c3ncc(-c4ccc(S(C)(=O)=O)cc4)cc23)c1F [Example 24, N-(2,4-difluoro-3-(5-(4-(methylsulfonyl)phenyl)-1H-pyrazolo[3,4-b]pyridine-3-carbonyl)phenyl)propane-1-sulfonamide] | ++ (1 ≤ PoC < 10) | +++ (PoC(JNK1)/PoC(MKK4) ≥ 30) | +++ (PoC(MKK7)/PoC(MKK4) ≥ 30) | O (PoC(BRaf)/PoC(MKK4) < 3) | < 5.00 | 6.00 to 6.30 | < 5.00 |
| CCCS(=O)(=O)Nc1ccc(F)c(C(=O)c2n[nH]c3ncc(-c4ccccc4F)cc23)c1F [Example 31, N-(2,4-difluoro-3-(5-(2-fluorophenyl)-1H-pyrazo-lo[3,4-b]pyridine-3-carbonyl)phenyl)propane-1-sulfon-amide] | ++ (1 ≤ PoC < 10) | +++ (PoC(JNK1)/PoC(MKK4) ≥ 30) | +++ (PoC(MKK7)/PoC(MKK4) ≥ 30) | ++ (30 > PoC(BRaf)/PoC(MKK4) ≥ 10) | 5.00 to 6.00 | > 6.30 | 5.00 to 6.00 |
| CCCS(=O)(=O)Nc1ccc(F)c(C(=O)c2n[nH]c3ncc(-c4cccc([N+](=O)[O-])c4)cc23)c1F [Example 32, N-(2,4-difluoro-3-(5-(3-nitrophenyl)-1H-pyrazolo[3,4-b]pyridine-3-carbonyl)phenyl)propane-1-sulfon-amide] | + (10 ≤ PoC < 30) | + (10 > PoC(JNK1)/PoC(MKK4) ≥ 3) | + (10 > PoC(MKK7)/PoC(MKK4) ≥ 3) | O (PoC(BRaf)/PoC(MKK4) < 3) | 5.00 to 6.00 | 6.00 to 6.30 | < 5.00 |

Next, values leading:

| MKK4, residual percent of control binding (PoC) (MKK4) | Selectivity vs. JNK1, ratio PoC(JNK1)/PoC(MKK4) (JNK1) | Selectivity vs. MKK7, ratio PoC(MKK7)/PoC(MKK4) (MKK7) | Selectivity vs. BRaf, ratio PoC(BRaf)/PoC(MKK4) (BRaf) | pIC50 (MKK4-MEKK2 mix) | pIC50 (MKK4 active) | pIC50 (MEKK2) | SMILES |
| --- | --- | --- | --- | --- | --- | --- | --- |
| ++ (1 ≤ PoC < 10) | +++ (PoC(JNK1)/PoC(MKK4) ≥ 30) | +++ (PoC(MKK7)/PoC(MKK4) ≥ 30) | ++ (30 > PoC(BRaf)/PoC(MKK4) ≥ 10) | 5.00 to 6.00 | 6.00 to 6.30 | < 5.00 | CCCS(=O)(=O)Nc1ccc(F)c(C(=O)c2n[nH]c3ncc(-c4ccc(F)cc4)cc23)c1F [Example 25, N-(2,4-difluoro-3-(5-(4-fluorophenyl)-1H-pyrazo-lo[3,4-b]pyridine-3-carbonyl)-phenyl)propane-1-sulfon-amide] |
| ++ (1 ≤ PoC < 10) | +++ (PoC(JNK1)/PoC(MKK4) ≥ 30) | +++ (PoC(MKK7)/PoC(MKK4) ≥ 30) | O (PoC(BRaf)/PoC(MKK4) < 3) | 6.00 to 6.30 | > 6.30 | 5.00 to 6.00 | CCCS(=O)(=O)Nc1ccc(F)c(C(=O)c2n[nH]c3ncc(-c4cccc(N)c4)cc23)c1F [Example 27, N-(3-(5-(3-aminophenyl)-1H-pyrazolo[3,4-b]pyridine-3-carbonyl)-2,4-difluorophenyl)-propane-1-sulfonamide] |
| ++ (1 ≤ PoC < 10) | ++ (30 > PoC(JNK1)/PoC(MKK4) ≥ 10) | +++ (PoC(MKK7)/PoC(MKK4) ≥ 30) | + (10 > PoC(BRaf)/PoC(MKK4) ≥ 3) | 6.00 to 6.30 | > 6.30 | 5.00 to 6.00 | CCCS(=O)(=O)Nc1ccc(F)c(C(=O)c2n[nH]c3ncc(-c4cccc(O)c4)cc23)c1F [Example 37, N-(2,4-difluoro-3-(5-(3-hydroxyphenyl)-1H-pyrazo-lo[3,4-b]pyridine-3-carbonyl)phenyl)propane-1-sulfon-amide] |

— patent US12264158B2, “Protein kinase MKK4 inhibitors for promoting liver regeneration or reducing or preventing hepatocyte death” (HEPAREGENIX GMBH, priority 2018, dated 2025)
